Results taken from ChEMBL document CHEMBL1201862, “PubChem BioAssay data set” (2004).
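1) Cells in 96-well plates. 2) Compound, 48 h, 5 concentrations. 3) Linear interpolation between surrounding doses. 4) Unreached endpoint = highest concentration. The concentration for 50% growth inhibition is given as GI50.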 Active and inactive are the calls of the source. No stated cut-off is given here; in the data, active = GI50 up to about 1.1 µM and inactive = higher.

Columns and labels:
Experiment in all cases: NCI-60 cell line screen, 48 h
SNB-19 = tested on: SNB-19
A498 = tested on: A498
SK-MEL-28 = tested on: SK-MEL-28
HCT-15 = tested on: HCT-15
SK-OV-3 = tested on: SK-OV-3
786-0 = tested on: 786-0
UO-31 = tested on: UO-31
LOX IMVI = tested on: LOX IMVI
RPMI-8226 = tested on: RPMI-8226
OVCAR-4 = tested on: OVCAR-4
TK-10 = tested on: TK-10
SF-268 = tested on: SF-268
COLO 205 = tested on: COLO 205

Measured: GI50

O=C(c1ccccc1)C(c1ccccc1)C1(O)C(=O)Nc2c(Cl)ccc(Cl)c21 (stereo not given)
18.4 µM: HCT-15
inactive: SNB-19 30.3 µM | A498 25.3 µM | SK-MEL-28 18.7 µM | SK-OV-3 30.8 µM | 786-0 19.5 µM | UO-31 20.2 µM | LOX IMVI 11.8 µM | RPMI-8226 12.2 µM | OVCAR-4 3.73 µM | TK-10 32.6 µM | SF-268 21.9 µM | COLO 205 22.2 µM

C/C(CN1C(=O)c2ccccc2C1=O)=N\NS(C)(=O)=O
inactive: SNB-19 > 100 µM | A498 > 100 µM | SK-MEL-28 > 100 µM | SK-OV-3 > 100 µM | 786-0 > 100 µM | UO-31 > 100 µM | RPMI-8226 > 100 µM | OVCAR-4 > 100 µM | TK-10 > 100 µM | SF-268 > 100 µM | COLO 205 > 100 µM
> 100 µM: HCT-15

Cc1nn2c(=O)n(-c3cccc(-n4nnc5c(-c6ccccc6)c(C)nn5c4=O)c3C)nnc2c1-c1ccccc1
inactive: SNB-19 > 100 µM | A498 83.6 µM | SK-OV-3 > 100 µM | 786-0 94.4 µM | UO-31 8.91 µM | LOX IMVI 27.7 µM | RPMI-8226 17.6 µM | OVCAR-4 15.6 µM | TK-10 47.9 µM | SF-268 46 µM | COLO 205 17.5 µM
16.1 µM: HCT-15

CCCCCCCCCC(=O)Oc1cccc2onc(C)c12
inactive: SNB-19 > 100 µM | SK-MEL-28 > 100 µM | SK-OV-3 > 100 µM | 786-0 > 100 µM | UO-31 40.8 µM | LOX IMVI > 100 µM | RPMI-8226 > 100 µM | OVCAR-4 > 100 µM | TK-10 > 100 µM | SF-268 > 100 µM | COLO 205 > 100 µM
> 100 µM: HCT-15

COc1ccc([C@H]2CC(=O)N3CCCC3N2)cc1 (stereo not given in full)
inactive: SNB-19 > 100 µM | A498 > 100 µM | SK-MEL-28 > 100 µM | SK-OV-3 > 100 µM | 786-0 > 100 µM | UO-31 > 100 µM | RPMI-8226 > 100 µM | OVCAR-4 > 100 µM | TK-10 > 100 µM | SF-268 > 100 µM | COLO 205 > 100 µM
> 100 µM: HCT-15

CC(C)(C)NN=C1C(C)(C)C(=NNC(C)(C)C)C1(C)C
> 100 µM: HCT-15
inactive: SNB-19 > 100 µM | SK-MEL-28 > 100 µM | SK-OV-3 > 100 µM | 786-0 > 100 µM | UO-31 > 100 µM | LOX IMVI > 100 µM | RPMI-8226 > 100 µM | OVCAR-4 > 100 µM | TK-10 > 100 µM | SF-268 > 100 µM | COLO 205 > 100 µM

O=C(O)CCSC(=O)Nc1cccc2ccccc12
> 100 µM: HCT-15
inactive: SNB-19 > 100 µM | A498 > 100 µM | SK-MEL-28 > 100 µM | SK-OV-3 > 100 µM | 786-0 > 100 µM | UO-31 > 100 µM | LOX IMVI > 100 µM | RPMI-8226 > 100 µM | OVCAR-4 > 100 µM | TK-10 > 100 µM | SF-268 > 100 µM | COLO 205 > 100 µM

COC1=CC(=O)C2C(C1=O)C(c1ccc(Cl)cc1)[C@@H]2C (stereo not given in full)
17.1 µM: HCT-15
inactive: SNB-19 7.05 µM | A498 58.9 µM | SK-MEL-28 28.9 µM | SK-OV-3 > 100 µM | 786-0 24.4 µM | UO-31 19.7 µM | LOX IMVI 22.4 µM | RPMI-8226 39.7 µM | OVCAR-4 42.4 µM | TK-10 38.7 µM | SF-268 33 µM | COLO 205 35 µM

Brc1ccc2c(c1)C1(c3cc(Br)ccc3-2)c2cc(Br)ccc2-c2ccc(Br)cc21
inactive: SNB-19 > 100 µM | SK-MEL-28 > 100 µM | SK-OV-3 > 100 µM | 786-0 > 100 µM | UO-31 > 100 µM | LOX IMVI > 100 µM | RPMI-8226 > 100 µM | OVCAR-4 > 100 µM | TK-10 > 100 µM | SF-268 > 100 µM | COLO 205 > 100 µM
> 100 µM: HCT-15

C=C(C)C1CCC2(C)CC1c1c(c(C)cc3c1[nH]c1ccccc13)O2 (stereo not given)
inactive: SNB-19 > 25 µM | SK-MEL-28 > 25 µM | SK-OV-3 > 25 µM | 786-0 > 25 µM | UO-31 12.6 µM | LOX IMVI > 25 µM | RPMI-8226 > 25 µM | OVCAR-4 11.7 µM | SF-268 > 25 µM | COLO 205 > 25 µM
> 25 µM: HCT-15

CC(C)(C)OC(=O)NC(CO)c1cccc(OCc2ccccc2)c1 (stereo not given)
inactive: SNB-19 > 81.7 µM | A498 > 87.9 µM | SK-MEL-28 > 100 µM | SK-OV-3 > 100 µM | 786-0 > 100 µM | UO-31 > 100 µM | LOX IMVI 49 µM | RPMI-8226 43.4 µM | OVCAR-4 99.8 µM | TK-10 > 82.6 µM | SF-268 > 100 µM | COLO 205 47.3 µM
> 100 µM: HCT-15
